Where “and” joins values, the source holds several entries; their conditions need not be identical. Equal values may be shown once.
How the values were obtained:
Carboxypeptidase E (Cpe) = assay: Oligo GEArray microarray of obesity-related genes in 3T3-L1 adipocytes; format: cell-based, mouse; conditions: for Ratio of expression signals of Cpe compared to control: 1 umol/L PF, control = 1
Procedure: 3T3-L1 adipocytes were cultured in medium containing 1 umol/L PF as test group and medium only as control. Total RNA was extracted and Oligo GEArray was tested using Superarray OMM-17. The GEArray includes 111 obesity-related genes that are directly involved in the regulation of energy intake and expenditure. The genes included orexigenic peptides, hormones, and receptors, anorectic peptides, hormones, receptors, and central and peripheral signaling molecules involved in energy expenditure. The increase changes or decrease changes of more than 1.5 fold are regarded meaningful according to the diagnosis discipline, as described in the insert literature of a metabolic disease/obesity gene panel product purchased from Superarray Bioscience Corporation. (Frederick, Md.).
In the graphs, the data above the upper line and the data below the lower line show a significant change of gene expression.

[1] = human, in vivo
Procedure: For Regular Injections: After sterilization of the surface area with 74% ethanol, topical application of lignocaine ointment or lidocaine gel was applied for 5 minutes to numb the skin where the injections are to take place.
For Booster Injection: The patient is prepared using 1 ml of 2% lidocaine to anaesthetize the site of entry of the large needle. This way, the procedure is almost painless. 3-5 minutes later, the booster injection is given slowly over a 3 minute period.
Patients are forewarned that bruising may occur due to the injections. Thus, some bruising in a patient may be expected. […] The bruising, usually disappears within 1 week. In addition, redness and tenderness at the injection site of the booster, is very common. Redness lasts for a couple of hours and the tenderness lasts for a couple of days. Bruising, is encountered more with the booster than the regular injections, but also disappears within a week or so. Another observation is fatigue as a result of treatment in some patients. […] In addition, a very slight rise in temperature, to about 37.1 or 37.2 for a few hours, was noted.

[2] = Fat reduction with PF/azone creme and low current in patients; format: in vivo, human
Procedure: Concentration of PF included into the topical preparation: 0.2 mg to 0.3 mg of PF were dissolved in 1 ml of azone liquid.
A low current of […] is then passed through pads placed on the skin of the desired treatment area which then drives the PF through the skin into the adipose tissues, thus allowing the PF to come in contact with the fat cells.
The present preparations may be provided in the form of a creme containing 1 ml of PF at a concentration of 1 mmol mixed with 1 ml of azone which is then massaged into the target area. Azone has been extensively studied using a range of permeants. […] This process leads to increased lipid fluidity and enhanced drug diffusion. This is the reason PF was mixed with azone. Furthermore, a low current is then passed through the tissue area, which then drives the PF through the skin into the adipose tissues. PF may in this way come in contact with fat cells. The clinical results are show below and the details of each patient is documented.

[3] = Blood indices before and after PF treatment in patients; format: in vivo, human; conditions: before vs after treatment with PF
[4] = per patient, number of times as in table

Structure (SMILES): C[C@@]12C[C@@]3(O)O[C@@H](O1)[C@]1(COC(=O)c4ccccc4)[C@H]3C[C@@]12O[C@@H]1O[C@H](CO)[C@@H](O)[C@H](O)[C@H]1O [PF, paeoniflorin]
- Ratio of expression signals of Cpe compared to control (Carboxypeptidase E (Cpe); 3 days): 0.79
- Ratio of expression signals of Cpe compared to control (Carboxypeptidase E (Cpe); 6 days): 1.04
- Ratio of expression signals of Cpe compared to control (Carboxypeptidase E (Cpe); 7 days): 2.67
- increase of Cpe expression compared to the control (Carboxypeptidase E (Cpe); day 7 of exposure to PF): 2.67 fold
- bruising [1]: bruising was observed
- diarrhea [1]: No diarrhea was observed
- dizziness [1]: observed in a few patients
- fatigue [1]: Two patients suffered from fatigue
- redness and tenderness at the injection site [1]: very common
- rise in temperature [1]: about 37.1 or 37.2
- stool [1]: softer stool was reported
- time until bruising disappears [1]: ≤ 1 week
- AMOUNT OF REDUCTION IN CM, each side of the upper thigh ([2]; patient #3, 6 times): 2 cm from each side of the upper
- AMOUNT OF REDUCTION IN CM, left buttock ([2]; patient #4, 7 times): 9 cm from the left buttock
- AMOUNT OF REDUCTION IN CM, right buttock ([2]; patient #4, 7 times): 8 cm from the right buttock &
- AMOUNT OF REDUCTION IN CM, each leg below the knees ([2]; patient #5, 8 times): 9 cm and 10 cm
- AMOUNT OF REDUCTION IN CM, left thigh ([2]; patient #7, 9 times): 6 cm
- AMOUNT OF REDUCTION IN CM, right thigh ([2]; patient #7, 9 times): 8 cm
- AMOUNT OF REDUCTION, bra size ([2]; patient #8, 30 times): 1.5 size in bra size
- AMOUNT OF REDUCTION IN CM, love handles ([2]; patient #12, 8 times): 10 cm from love handles and
- AMOUNT OF REDUCTION IN CM, above and below the umbilicus [2, 4]: 3.5 cm above and below the
- AMOUNT OF REDUCTION IN CM, above the umbilicus [2, 4]: 7 cm and 6 cm and 10 cm above the umbilicus, and 9 cm above the umbilicus. 9 cm
- AMOUNT OF REDUCTION IN CM, below the umbilicus [2, 4]: 9 cm and 9.5 cm below the umbilicus and 6 cm below the umbilicus
- AMOUNT OF REDUCTION IN CM, midsection [2, 4]: 10 cm and 5 cm from the waist and 5 cm and 9 cm above the umbilicus. 9 cm
- blood sugar levels [3]: decreased upon treatment

Source: US9901591B2, “Paeoniflorin preparations and uses thereof for fat reduction” (priority 2008, dated 2018)
